The target of one test is Bcl-2 protein (histag-Bcl-2, UniProtKB P10415) (Homo sapiens (Human), UniProt P10415). Put plainly: Inhibition of Bcl-2 by the fluorescence polarisation technique. The note with it: incubation for 2 hours, read-out: IC50 (nM) Bcl-2 FP. Format: binding. The method in brief:
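Fluorescence polarisation competition: His-tagged Bcl-2 (2.50×10^−8 M final) with fluorescein-labelled peptide (1.00×10^−8 M final) in 10 mM Hepes, 150 mM NaCl, 0.05% Tween20, pH 7.4. Increasing compound concentrations were added. Polarisation was read after 2 h incubation.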
(In general: Polarisation of emitted light reports the rotation of a fluorescent probe.)

The subject of test [1] is RS4;11 leukaemia tumour line. Put plainly: In vitro cytotoxicity (Microculture Tetrazolium Assay). Format: cell-based. The note with it: Homo sapiens, RS4-11, 48 h, RS4;11 cells, exposed for 48 hours, cell viability; read-out: IC50 (nM) MTT RS4;11. Here is the method:
The cytotoxicity studies were carried out on the RS4;11 leukaemia tumour line.
The cells are distributed onto microplates and exposed to the test compounds for 48 hours.
The cell viability is then quantified by a colorimetric assay, the Microculture Tetrazolium Assay (Cancer Res., 1987, 47, 939-942).

The test system of test [2] is cleaved (activated) form of caspase 3 in RS4;11 leukaemia cell xenograft tumours. Put plainly: Quantification of the cleaved form of caspase 3 in vivo (MSD ELISA). The arrangement: species or system mice (SCID strain). The note with it: Mus musculus, cleaved caspase 3 MSD test, oral route, tumour removed after 2 hours, read-out: Activation factor ± SEM (versus control). The method, then:
The ability of the compounds of the invention to activate caspase 3 is evaluated in a xenograft model of RS4;11 leukaemia cells.
1×10^7 RS4;11 cells are grafted sub-cutaneously into immunosuppressed mice (SCID strain). 25 to 30 days after the graft, the animals are treated orally with the various compounds. After treatment, the tumour masses are recovered and lysed, and the cleaved (activated) form of caspase 3 is quantified in the tumour lysates.
The quantification is carried out using the “Meso Scale Discovery (MSD) ELISA platform” test, which specifically assays the cleaved form of caspase 3. It is expressed in the form of an activation factor corresponding to the ratio between the quantity of cleaved caspase 3 in the treated mice divided by the quantity of cleaved caspase 3 in the control mice.
(An ELISA detects its analyte on a solid surface through an enzyme-linked reagent.)

Where a name gives a salt, the structure may show the parent alone.

Bcl-2 protein, sequence (P10415 whole entry): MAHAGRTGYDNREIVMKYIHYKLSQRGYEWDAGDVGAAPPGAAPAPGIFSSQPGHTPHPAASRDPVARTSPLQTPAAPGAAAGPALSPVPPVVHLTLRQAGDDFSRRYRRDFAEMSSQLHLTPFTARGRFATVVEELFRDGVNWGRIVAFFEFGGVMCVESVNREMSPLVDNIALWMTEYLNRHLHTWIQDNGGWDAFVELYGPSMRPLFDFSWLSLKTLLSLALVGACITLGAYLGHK

`Cc1c(C(=O)N(c2ccc(O)cc2)c2cnn(C)c2)cc(-c2cc(Cl)ccc2C(=O)N2Cc3ccccc3C[C@H]2CN2CCOCC2)n1C` [Example 25, 5-(5-Chloro-2-{[(3S)-3-(morpholin-4-ylmethyl)-3,4-dihydroisoquinolin-2(1H)-yl]carbonyl}phenyl)-N-(4-hydroxyphenyl)-1,2-dimethyl-N-(1-methyl-1H-pyrazol-4-yl)-1H-pyrrole-3-carboxamide hydrochloride]: the IC50 on Bcl-2 protein is 4 nM; in test [1] it was 33.3 nM. In test [2], the fold induction at 25 mg/kg came out at 45.7 ± 2.

Turning to `Cc1c(C(=O)N(c2ccc(O)cc2)c2cnn(C)c2)cc(-c2cc3c(cc2C(=O)N2Cc4ccccc4C[C@H]2CN2CCOCC2)OCO3)n1C` [Example 47, N-(4-Hydroxyphenyl)-1,2-dimethyl-N-(1-methyl-1H-pyrazol-4-yl)-5-(6-{[(3S)-3-(morpholin-4-ylmethyl)-3,4-dihydroisoquinolin-2(1H)-yl]carbonyl}-1,3-benzodioxol-5-yl)-1H-pyrrole-3-carboxamide hydrochloride], the values for the IC50 (on Bcl-2 protein; in test [1]) were 5.9 nM and 44.5 nM, respectively. In addition, the fold induction at 25 mg/kg in test [2] came out at 12.3 ± 2.4.

For `Cc1c(N(C(=O)c2cc(-c3cc(F)ccc3C(=O)N3Cc4ccccc4C[C@H]3CN3CCOCC3)n(C)c2C)c2ccc(O)cc2)cnn1C` [Example 453, N-(1,5-Dimethyl-1H-pyrazol-4-yl)-5-(5-fluoro-2-{[(3S)-3-(morpholin-4-ylmethyl)-3,4-dihydroisoquinolin-2(1H)-yl]carbonyl}phenyl)-N-(4-hydroxyphenyl)-1,2-dimethyl-1H-pyrrole-3-carboxamide hydrochloride], the IC50 was determined as 6.9 nM on Bcl-2 protein and 99.9 nM in test [1].

As for `Cc1c(N(C(=O)c2cc(-c3cc(Cl)ccc3C(=O)N3Cc4ccccc4CC3C(F)(F)F)n(C)c2C)c2ccc(O)cc2)cc(C#N)n1C` (stereo not shown) [Example 454, 5-(5-Chloro-2-{[3-(trifluoromethyl)-3,4-dihydroisoquinolin-2(1H)-yl]carbonyl}phenyl)-N-(5-cyano-1,2-dimethyl-1H-pyrrol-3-yl)-N-(4-hydroxyphenyl)-1,2-dimethyl-1H-pyrrole-3-carboxamide], the IC50 at Bcl-2 protein worked out at 6.5 nM; in test [1], 158 nM.

Turning to `Cc1c(C(=O)N(c2ccc(O)cc2)c2cc(C#N)n(CCN3CCOCC3)c2C)cc(-c2cc(Cl)ccc2C(=O)N2Cc3ccccc3C[C@H]2C)n1C` [Example 455, 5-(5-Chloro-2-{[(3R)-3-methyl-3,4-dihydroisoquinolin-2(1H)-yl]-carbonyl}phenyl)-N-{5-cyano-2-methyl-1-[2-(morpholin-4-yl)ethyl]-1H-pyrrol-3-yl}-N-(4-hydroxyphenyl)-1,2-dimethyl-1H-pyrrole-3-carboxamide hydrochloride], the IC50 on Bcl-2 protein worked out at 1.9 nM; in test [1] it was 11.8 nM.

As to `Cc1c(C(=O)N(c2ccc(O)cc2)c2cnc(OCCN3CCOCC3)nc2)cc(-c2cc(Cl)ccc2C(=O)N2Cc3ccccc3C[C@H]2C)n1C` [Example 456, 5-(5-Chloro-2-{[(3R)-3-methyl-3,4-dihydroisoquinolin-2(1H)-yl]-carbonyl}phenyl)-N-(4-hydroxyphenyl)-1,2-dimethyl-N-{2-[2-(morpholin-4-yl)-ethoxy]pyrimidin-5-yl}-1H-pyrrole-3-carboxamide hydrochloride], the IC50 at Bcl-2 protein was found to be 2.7 nM; in test [1] it was 80.6 nM.

Take `Cc1c(N(C(=O)c2cc(-c3cc(Cl)ccc3C(=O)N3Cc4ccccc4C[C@H]3CN3CCOCC3)n(C)c2C)c2ccc(O)cc2)cn(C)c1C#N` [Example 458, 5-(5-Chloro-2-{[(3S)-3-(morpholin-4-ylmethyl)-3,4-dihydroisoquinolin-2(1H)-yl]carbonyl}phenyl)-N-(5-cyano-1,4-dimethyl-1H-pyrrol-3-yl)-N-(4-hydroxyphenyl)-1,2-dimethyl-1H-pyrrole-3-carboxamide hydrochloride]: the IC50 at Bcl-2 protein worked out at 10.5 nM; in test [1] it was 197 nM.

For `CCn1c(C#N)cc(N(C(=O)c2cc(-c3cc(Cl)ccc3C(=O)N3Cc4ccccc4C[C@H]3CN3CCOCC3)n(C)c2C)c2ccc(O)cc2)c1C` [Example 459, 5-(5-Chloro-2-{[(3S)-3-(morpholin-4-ylmethyl)-3,4-dihydroisoquinolin-2(1H)-yl]carbonyl}phenyl)-N-(5-cyano-1-ethyl-2-methyl-1H-pyrrol-3-yl)-N-(4-hydroxyphenyl)-1,2-dimethyl-1H-pyrrole-3-carboxamide hydrochloride], the IC50 stood at 2.5 nM at Bcl-2 protein and 5.93 nM in test [1].

In the case of `Cc1c(C(=O)N(c2ccc(O)cc2)c2cnn(C3CCOC3)c2)cc(-c2cc(Cl)ccc2C(=O)N2Cc3ccccc3C[C@H]2CCCN2CCOCC2)n1C` (stereo partly drawn) [Example 460, 5-(5-Chloro-2-{[(3R)-3-[3-(morpholin-4-yl)propyl]-3,4-dihydroisoquinolin-2(1H)-yl]carbonyl}phenyl)-N-(4-hydroxyphenyl)-1,2-dimethyl-N-[1-(tetrahydrofuran-3-yl)-1H-pyrazol-4-yl]-1H-pyrrole-3-carboxamide hydrochloride], the IC50 is 2.8 nM on Bcl-2 protein and 22.9 nM in test [1].

With `Cc1c(N(C(=O)c2cc(-c3cc(Cl)ccc3C(=O)N3Cc4ccccc4C[C@H]3CCCN3CCOCC3)n(C)c2C)c2ccccc2)cc(C#N)n1C` [Example 461, 5-(5-Chloro-2-{[(3R)-3-[3-(morpholin-4-yl)propyl]-3,4-dihydroisoquinolin-2(1H)-yl]carbonyl}phenyl)-N-(5-cyano-1,2-dimethyl-1H-pyrrol-3-yl)-1,2-dimethyl-N-phenyl-1H-pyrrole-3-carboxamide hydrochloride], the results for the IC50 (on Bcl-2 protein; in test [1]) were 3.1 nM and 18.6 nM, respectively.

`Cc1cc(N(C(=O)c2cc(-c3cc(Cl)ccc3C(=O)N3Cc4ccccc4C[C@H]3CN3CCOCC3)n(C)c2C)c2ccc(O)cc2)no1` [Example 462, 5-(5-Chloro-2-{[(3S)-3-(morpholin-4-ylmethyl)-3,4-dihydroisoquinolin-2(1H)-yl]carbonyl}phenyl)-N-(4-hydroxyphenyl)-1,2-dimethyl-N-(5-methyl-1,2-oxazol-3-yl)-1H-pyrrole-3-carboxamide]: the IC50 on Bcl-2 protein came out at 13.3 nM; in test [1], 368 nM.

Consider `Cc1c(C(=O)N(c2cnc3c(ccn3C)c2)c2ccc(O)cn2)cc(-c2cc(Cl)ccc2C(=O)N2Cc3ccccc3C[C@H]2CN2CCOCC2)n1C` [Example 464, 5-(5-Chloro-2-{[(3S)-3-(morpholin-4-ylmethyl)-3,4-dihydroisoquinolin-2(1H)-yl]carbonyl}phenyl)-N-(5-hydroxypyridin-2-yl)-1,2-dimethyl-N-(1-methyl-1H-pyrrolo[2,3-b]pyridin-5-yl)-1H-pyrrole-3-carboxamide dihydrochloride], for which the IC50 on Bcl-2 protein came to 36.6 nM; in test [1] it was 723 nM.

Turning to `Cc1c(C(=O)N(c2ccccc2)c2ccc(O)cc2)cc(-c2cc(Cl)ccc2C(=O)N2CCc3ccccc3C2)n1C` [Example 467, 5-(5-Chloro-2-{[3,4-dihydroisoquinolin-2(1H)-yl]carbonyl}phenyl)-N-(4-hydroxyphenyl)-1,2-dimethyl-N-phenyl-1H-pyrrole-3-carboxamide], the IC50 was found to be 19.2 nM at Bcl-2 protein and 188 nM in test [1].

By IC50 is commonly meant the concentration that gives 50% inhibition.

The record behind these values is patent US9108983B2, “Pyrrole compounds, a process for their preparation and pharmaceutical compositions containing them” (LES LABORATOIRES SERVIER, priority 2013, dated 2015).
